Measured values reported in ChEMBL document CHEMBL1201862, “PubChem BioAssay data set” (2004).
Calls of active or inactive are those of the source.

Experiments:
Cytochrome P450 3A4 = Cytochrome P450 3A4 (Homo sapiens, UniProt P08684);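 further: CYP3A4 tested as one member of a cytochrome P450 panel screen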
Cytochrome P450 2C9 = Cytochrome P450 2C9 (Homo sapiens, UniProt P11712)
Cytochrome P450 1A2 = molecular target: T1, Cytochrome P450 1A2 (Homo sapiens, UniProt P05177);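 further: PubChem cytochrome P450 panel assay, CYP1A2 panel member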
T1 sequence (P05177 whole entry): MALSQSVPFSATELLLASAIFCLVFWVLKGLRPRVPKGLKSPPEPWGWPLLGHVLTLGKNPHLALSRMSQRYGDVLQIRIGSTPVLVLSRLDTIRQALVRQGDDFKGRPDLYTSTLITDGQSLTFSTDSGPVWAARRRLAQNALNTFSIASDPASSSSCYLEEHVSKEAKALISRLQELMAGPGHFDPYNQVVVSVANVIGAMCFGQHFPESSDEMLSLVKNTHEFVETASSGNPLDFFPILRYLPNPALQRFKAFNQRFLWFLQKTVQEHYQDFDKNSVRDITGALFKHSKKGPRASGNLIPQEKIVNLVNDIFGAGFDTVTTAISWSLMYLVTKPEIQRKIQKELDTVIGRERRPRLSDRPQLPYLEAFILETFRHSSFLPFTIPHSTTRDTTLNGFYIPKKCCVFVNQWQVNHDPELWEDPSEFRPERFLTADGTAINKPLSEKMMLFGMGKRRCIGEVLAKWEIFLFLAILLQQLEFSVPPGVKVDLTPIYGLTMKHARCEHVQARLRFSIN

[1] = molecular target: Tyrosine-protein phosphatase non-receptor type 11 (Homo sapiens, UniProt Q06124); test: SHP2 phosphatase inhibition, dose response, selectivity assay for STEP inhibitor project, biochemical (AID 602367); type: functional; conditions: read-out: IC50_Mean
[2] = molecular target: Dual specificity protein phosphatase 3 (Homo sapiens, UniProt P51452); test: VHR phosphatase inhibition, dose response, selectivity assay for STEP inhibitor project, biochemical (AID 602374); type: functional; conditions: read-out: IC50_Mean
[3] = molecular target: Tyrosine-protein phosphatase non-receptor type 5 (Homo sapiens, UniProt P54829); test: STEP phosphatase inhibitors, confirmation, biochemical, fluorescence intensity, uHTS hits (AID 602372); type: functional; conditions: read-out: IC50_Mean
[4] = molecular target: Glucose-6-phosphate 1-dehydrogenase (Homo sapiens, UniProt P11413); test: human G6PD enzyme inhibitors, dose response, selectivity assay for P. falciparum G6PD inhibitor project, biochemical, fluorescence (AID 504792); type: functional
[5] = molecular target: T2, Tyrosine-protein phosphatase non-receptor type 22 (Homo sapiens, UniProt Q9Y2R2); type: functional
T2 sequence (Q9Y2R2 whole entry): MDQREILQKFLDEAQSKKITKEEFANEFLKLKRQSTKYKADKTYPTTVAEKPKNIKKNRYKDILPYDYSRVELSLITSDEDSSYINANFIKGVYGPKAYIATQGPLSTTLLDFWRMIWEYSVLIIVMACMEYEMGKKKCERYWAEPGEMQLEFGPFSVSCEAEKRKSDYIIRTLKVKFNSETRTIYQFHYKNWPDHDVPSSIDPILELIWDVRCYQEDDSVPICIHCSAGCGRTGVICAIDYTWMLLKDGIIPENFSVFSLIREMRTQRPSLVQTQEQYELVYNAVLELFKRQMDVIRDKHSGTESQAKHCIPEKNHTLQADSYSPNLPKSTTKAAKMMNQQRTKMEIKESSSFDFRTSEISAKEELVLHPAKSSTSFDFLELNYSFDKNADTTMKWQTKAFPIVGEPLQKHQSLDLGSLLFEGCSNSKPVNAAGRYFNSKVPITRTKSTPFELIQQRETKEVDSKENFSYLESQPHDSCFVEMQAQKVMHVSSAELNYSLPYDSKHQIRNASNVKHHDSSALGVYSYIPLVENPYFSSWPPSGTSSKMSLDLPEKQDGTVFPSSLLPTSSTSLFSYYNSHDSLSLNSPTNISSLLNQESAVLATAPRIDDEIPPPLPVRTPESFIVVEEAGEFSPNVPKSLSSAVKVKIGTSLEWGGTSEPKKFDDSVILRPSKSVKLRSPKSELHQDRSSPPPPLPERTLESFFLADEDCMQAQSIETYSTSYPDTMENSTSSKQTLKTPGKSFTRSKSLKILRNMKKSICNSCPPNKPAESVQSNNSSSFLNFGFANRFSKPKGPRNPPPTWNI

[6] = Luminescence Cell-Based Dose Response to Identify Activators of 5'UTR Stem-Loop Driven Prion Protein mRNA Translation in H4-C Neuroglioblastoma Cells. [Related pubchem assays: 1829 (Project Summary), 1814 (Primary HTS)]; type: functional
[7] = molecular target: T2, Tyrosine-protein phosphatase non-receptor type 22; type: functional; remark: listed apart in the source
[8] = Luminescence Cell-Based Dose Response to Identify Activators of Luciferase Translation or Activity in H4-C Neuroglioblastoma Cells. [Related pubchem assays: 1829 (Project Summary), 1814 (Primary HTS)]; type: functional
[9] = Luminescence Cell-Based Dose Confirmation to Identify Activators of 5'UTR Stem-Loop Driven Alpha-Synuclein mRNA Translation in H4 Neuroglioblastoma Cells. [Related pubchem assays: 1829 (Project Summary), 1814 (Primary HTS)]; type: functional
[10] = molecular target: T3, Tyrosine-protein phosphatase non-receptor type 7 (Homo sapiens, UniProt P35236); type: functional
T3 sequence (P35236 whole entry): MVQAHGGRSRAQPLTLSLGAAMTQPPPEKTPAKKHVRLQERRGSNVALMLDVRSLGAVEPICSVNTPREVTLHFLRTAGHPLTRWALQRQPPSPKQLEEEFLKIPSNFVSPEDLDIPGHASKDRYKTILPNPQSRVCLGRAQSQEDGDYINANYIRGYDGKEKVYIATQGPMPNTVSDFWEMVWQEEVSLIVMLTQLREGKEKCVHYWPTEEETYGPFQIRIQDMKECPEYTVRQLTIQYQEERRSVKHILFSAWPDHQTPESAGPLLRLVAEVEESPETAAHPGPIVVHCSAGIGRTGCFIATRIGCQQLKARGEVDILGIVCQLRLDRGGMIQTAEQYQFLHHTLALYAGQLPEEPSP

H4 = test: Luminescence Cell-Based Dose Response HTS to Identify Activators of 5'UTR Stem-Loop Driven Prion Protein mRNA Translation in H4 Neuroglioblastoma Cells. [Related pubchem assays: 1829 (Project Summary), 1814 (Primary HTS)]; type: functional; conditions: Homo sapiens
[11] = Luminescence Cell-Based Dose Confirmation HTS to Identify Activators of 5'UTR Stem-Loop Driven Alpha-Synuclein mRNA Translation in H4 Neuroglioblastoma Cells. [Related pubchem assays: 1829 (Project Summary), 1814 (Primary HTS)]; type: functional
[12] = Luminescence Cell-Based Dose Response HTS to Identify Activators of Luciferase Translation or Activity in H4 […] Cells. [Related pubchem assays: 1829 (Project Summary), 1814 (Primary HTS)]; type: functional
HeLa = test: HeLa cell cytotoxicity, dose response, cytotoxicity control for MITF activator project, CellTiter-Glo luminescence, cherry-pick samples (AID 540259); type: functional, cell-based; conditions: Homo sapiens
[13] = HEp-2 cell cytotoxicity, dose response, cytotoxicity control for RSV inhibitor project, HTS (AID 2410); type: functional; conditions: human respiratory syncytial virus
Vero = test: cells; type: functional, cell-based; conditions: Chlorocebus sabaeus

Chain of Dual specificity protein phosphatase 3 (P51452 whole entry): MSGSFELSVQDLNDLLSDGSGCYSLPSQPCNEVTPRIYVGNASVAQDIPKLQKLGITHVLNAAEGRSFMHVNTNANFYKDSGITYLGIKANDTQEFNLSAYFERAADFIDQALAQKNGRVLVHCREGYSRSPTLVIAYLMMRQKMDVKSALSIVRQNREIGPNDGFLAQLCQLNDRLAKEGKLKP
Chain of Cytochrome P450 3A4 (P08684 whole entry): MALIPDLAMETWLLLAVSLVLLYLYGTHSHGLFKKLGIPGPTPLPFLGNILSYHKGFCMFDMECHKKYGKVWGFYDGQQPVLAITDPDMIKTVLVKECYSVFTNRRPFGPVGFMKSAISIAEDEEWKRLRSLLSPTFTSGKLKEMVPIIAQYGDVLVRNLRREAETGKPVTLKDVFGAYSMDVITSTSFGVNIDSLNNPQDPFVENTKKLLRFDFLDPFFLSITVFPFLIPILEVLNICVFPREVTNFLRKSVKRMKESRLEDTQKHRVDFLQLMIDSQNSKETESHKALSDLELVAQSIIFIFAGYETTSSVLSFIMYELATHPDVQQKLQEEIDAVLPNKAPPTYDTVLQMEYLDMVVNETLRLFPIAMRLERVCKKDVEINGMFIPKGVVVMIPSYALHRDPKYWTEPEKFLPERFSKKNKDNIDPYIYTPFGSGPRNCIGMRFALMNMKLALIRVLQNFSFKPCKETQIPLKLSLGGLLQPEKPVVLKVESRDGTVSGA
Chain of Cytochrome P450 2C9 (P11712 whole entry): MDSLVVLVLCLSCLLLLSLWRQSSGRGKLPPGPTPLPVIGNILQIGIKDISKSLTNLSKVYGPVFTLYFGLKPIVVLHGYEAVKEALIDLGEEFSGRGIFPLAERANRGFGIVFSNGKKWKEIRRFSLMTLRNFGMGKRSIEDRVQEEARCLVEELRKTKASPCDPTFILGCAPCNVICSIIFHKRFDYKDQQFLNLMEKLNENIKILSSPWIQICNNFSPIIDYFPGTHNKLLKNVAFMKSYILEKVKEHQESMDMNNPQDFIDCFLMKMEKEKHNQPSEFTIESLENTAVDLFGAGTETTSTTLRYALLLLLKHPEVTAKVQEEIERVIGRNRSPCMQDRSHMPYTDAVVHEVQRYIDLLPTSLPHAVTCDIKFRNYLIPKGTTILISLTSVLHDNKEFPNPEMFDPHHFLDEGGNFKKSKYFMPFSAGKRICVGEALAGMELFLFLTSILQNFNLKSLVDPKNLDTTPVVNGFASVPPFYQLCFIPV
Chain of Glucose-6-phosphate 1-dehydrogenase (P11413 whole entry): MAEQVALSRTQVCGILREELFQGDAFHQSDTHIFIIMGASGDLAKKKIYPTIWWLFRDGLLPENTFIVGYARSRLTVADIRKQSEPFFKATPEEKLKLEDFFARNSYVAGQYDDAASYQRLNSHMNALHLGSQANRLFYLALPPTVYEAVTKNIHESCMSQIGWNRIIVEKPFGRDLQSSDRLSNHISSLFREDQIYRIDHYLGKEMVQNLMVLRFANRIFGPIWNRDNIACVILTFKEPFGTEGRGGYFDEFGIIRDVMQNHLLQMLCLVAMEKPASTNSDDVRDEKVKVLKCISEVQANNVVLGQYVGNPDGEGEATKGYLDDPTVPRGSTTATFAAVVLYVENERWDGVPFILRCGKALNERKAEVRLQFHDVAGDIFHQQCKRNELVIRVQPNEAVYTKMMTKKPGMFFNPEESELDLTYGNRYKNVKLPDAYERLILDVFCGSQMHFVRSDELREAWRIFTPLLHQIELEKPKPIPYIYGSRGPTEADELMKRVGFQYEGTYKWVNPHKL
Chain of Tyrosine-protein phosphatase non-receptor type 11 (Q06124 whole entry): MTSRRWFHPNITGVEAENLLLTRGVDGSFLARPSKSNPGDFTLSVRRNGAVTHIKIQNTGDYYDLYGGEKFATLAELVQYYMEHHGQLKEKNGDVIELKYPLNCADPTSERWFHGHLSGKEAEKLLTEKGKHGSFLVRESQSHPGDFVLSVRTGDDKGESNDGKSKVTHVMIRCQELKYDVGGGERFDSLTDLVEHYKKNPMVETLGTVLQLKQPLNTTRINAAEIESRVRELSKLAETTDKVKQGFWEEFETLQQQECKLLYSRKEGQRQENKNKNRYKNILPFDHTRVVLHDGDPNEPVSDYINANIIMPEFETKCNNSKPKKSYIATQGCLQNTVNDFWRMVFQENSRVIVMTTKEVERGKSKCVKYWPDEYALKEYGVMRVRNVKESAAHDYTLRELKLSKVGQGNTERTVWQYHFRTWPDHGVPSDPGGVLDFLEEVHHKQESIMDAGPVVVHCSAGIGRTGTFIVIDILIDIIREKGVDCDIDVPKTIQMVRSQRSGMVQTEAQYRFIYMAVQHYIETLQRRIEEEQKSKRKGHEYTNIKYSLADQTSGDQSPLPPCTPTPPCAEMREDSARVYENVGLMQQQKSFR
Chain of Tyrosine-protein phosphatase non-receptor type 5 (P54829 whole entry): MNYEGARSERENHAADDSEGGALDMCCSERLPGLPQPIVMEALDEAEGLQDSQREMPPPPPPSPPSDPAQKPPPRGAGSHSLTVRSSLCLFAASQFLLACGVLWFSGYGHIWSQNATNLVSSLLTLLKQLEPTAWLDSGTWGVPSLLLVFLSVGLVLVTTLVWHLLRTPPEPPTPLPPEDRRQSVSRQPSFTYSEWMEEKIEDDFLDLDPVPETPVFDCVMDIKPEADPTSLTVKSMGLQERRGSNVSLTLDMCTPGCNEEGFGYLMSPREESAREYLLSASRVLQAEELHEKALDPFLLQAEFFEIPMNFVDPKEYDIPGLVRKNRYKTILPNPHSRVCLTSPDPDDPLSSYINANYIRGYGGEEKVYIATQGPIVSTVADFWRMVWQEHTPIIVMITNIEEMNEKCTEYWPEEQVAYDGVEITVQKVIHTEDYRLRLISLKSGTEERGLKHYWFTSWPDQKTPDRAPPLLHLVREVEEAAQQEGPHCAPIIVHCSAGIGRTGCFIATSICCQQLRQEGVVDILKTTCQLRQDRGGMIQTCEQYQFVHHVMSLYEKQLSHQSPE

Question: For COc1ccc(NC(=O)N2CC[C@@]3(CCCN(C(=O)c4c(C)noc4C)C3)C2)cc1, which AC50 (Cytochrome P450 3A4) is on record?
Answer: 7.94 µM (inconclusive)

Question: And the AC50 (Cytochrome P450 2C9)?
Answer: inconclusive

Question: What about the AC50 (Cytochrome P450 1A2) of the same molecule?
Answer: inconclusive

Question: For O=S(=O)(Nc1ccc(Cl)cc1)c1ccc(N2CCOCC2)c(NC(=S)NCCN2CCOCC2)c1, which IC50 [1] is on record?
Answer: 1.1 µM (active)

Question: What about the IC50 [2] of the same molecule?
Answer: 0.342 µM (active)

Question: And the IC50 [3]?
Answer: 8.03 µM (active)

Question: What about the IC50 [4] of the same molecule?
Answer: > 80 µM (inactive)

Question: With CCCCCOc1ccc(CN2CCOCC2)cc1Cl as the molecule, how does the IC50 [5] read?
Answer: > 79.4 µM (inactive)

Question: What about the EC50 [6] of the same molecule?
Answer: 1.3 µM (active)

Question: And the IC50 [7]?
Answer: > 79.4 µM (inactive)

Question: What about the EC50 [8] of the same molecule?
Answer: 1.05 µM (active)

Question: And the EC50 [9]?
Answer: 0.731 µM (active)

Question: What about the IC50 [10] of the same molecule?
Answer: > 79.4 µM (inactive)

Question: And the EC50 (H4)?
Answer: 35.5 µM (active)

Question: What about the EC50 [11] of the same molecule?
Answer: < 0.1 µM (active)

Question: What about the EC50 [12] of the same molecule?
Answer: < 0.1 µM (inconclusive)

Question: With CCCC(=O)Nc1ccc(C#Cc2ccccc2)cc1 as the molecule, how does the AC50 (HeLa) read?
Answer: 173 µM (active)

Question: Which AC50 (HeLa) does the source give for CCCCc1nc2cc(C(=O)N3CCN(c4nc(C)cnc4C)CC3)ccc2o1 here?
Answer: 47.3 µM (active)

Question: Which CC50 [13] does the source give for CSc1nnc2c3ccccc3n(CCc3ccccc3)c2n1 here?
Answer: > 50 µM (active)

Question: What about the IC50 (Vero) of the same molecule?
Answer: > 12.5 µM (active)
